The text below walks through data of US20090099169A1, “Benzofuran Compounds As EP1 Receptor Antagonists” (GLAXO GROUP LIMITED, priority 2006, published 2009).

In one assay the target is T1, human EP1 receptor (Homo sapiens, UniProt P34995).
T1 sequence (P34995 1-402): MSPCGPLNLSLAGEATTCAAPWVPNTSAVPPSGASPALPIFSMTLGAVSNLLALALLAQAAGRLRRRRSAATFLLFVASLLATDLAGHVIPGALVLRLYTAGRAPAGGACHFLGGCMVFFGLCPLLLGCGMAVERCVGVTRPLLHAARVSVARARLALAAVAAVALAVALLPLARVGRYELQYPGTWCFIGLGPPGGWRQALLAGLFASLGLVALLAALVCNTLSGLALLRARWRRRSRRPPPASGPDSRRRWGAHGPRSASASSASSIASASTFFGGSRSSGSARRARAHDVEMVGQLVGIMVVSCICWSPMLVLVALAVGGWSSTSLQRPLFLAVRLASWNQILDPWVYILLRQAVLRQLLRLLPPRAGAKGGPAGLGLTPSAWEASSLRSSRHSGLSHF
Put plainly: human EP1 calcium mobilisation assay. In kind it is cell-based. On the set-up: expressed in transfected cells. The note with it: CHO-K1 cells, antagonism of PGE2; averages of a number of experiments; read-out: functional pKi value (human EP1 calcium mobilisation assay) (converted). The gist of the method: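 CHO-K1 cells stably transfected with human EP1 or EP3, loaded with Fluo-4 after 24 h culture, treated with compound, then challenged with PGE2. Calcium-driven fluorescence read on FLIPR; pIC50 is half-maximal inhibition of PGE2-induced calcium mobilisation, from curve fitting.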
(Calcium assays in cells follow changes in intracellular calcium, usually with a dye or a luminescent sensor.)

For another assay, the target named is T2, human TP receptor (Homo sapiens, UniProt P21731).
T2 construct: expressed in transfected cells; host or cells: CHO-K1
T2 sequence (P21731 1-343): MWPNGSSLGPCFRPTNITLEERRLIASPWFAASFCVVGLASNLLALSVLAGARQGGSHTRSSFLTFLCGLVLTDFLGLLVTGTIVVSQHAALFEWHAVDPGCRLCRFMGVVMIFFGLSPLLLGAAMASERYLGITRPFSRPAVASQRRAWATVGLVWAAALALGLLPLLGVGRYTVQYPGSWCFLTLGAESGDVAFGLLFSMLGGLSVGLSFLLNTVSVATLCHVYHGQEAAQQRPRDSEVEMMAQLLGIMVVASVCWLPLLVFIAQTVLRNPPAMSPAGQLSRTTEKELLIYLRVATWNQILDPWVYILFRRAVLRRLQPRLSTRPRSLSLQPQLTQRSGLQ
Put plainly: human TP calcium mobilisation assay. In kind it is cell-based. The following applies: CHO-K1 cells, antagonism of U46619; averages of a number of experiments; read-out: functional pKi value (human TP calcium mobilisation assay) (converted). Here is the method: To determine if a compound has agonist or antagonist activity at the TP receptor a functional calcium mobilisation assay may be performed. Briefly, the antagonist properties of compounds are assessed by their ability to inhibit the mobilisation of intracellular calcium ([Ca^2+]i) in response to activation of TP receptors by the stable TXA2 mimetic U46619 (9,11-dideoxy-11α,9α-epoxy-methanoprostaglandin F2α; commercially available from e.g Sigma-Aldrich). Increasing concentrations of antagonist reduce the amount of calcium that a given concentration of U46619 can mobilise. The net effect is to displace the U46619 concentration-effect curve. The amount of calcium produced is assessed using a calcium-sensitive fluorescent dye such as Fluo-4, AM and a suitable instrument such as a Fluorimetric Imaging Plate Reader (FLIPR). Increasing amounts of [Ca^2+]i produced by receptor activation increase the amount of fluorescence produced by the dye and give rise to an increasing signal. The signal may be detected using the FLIPR instrument and the data generated may be analysed with suitable curve-fitting software. The agonist activity of the compounds are determined by their ability to cause an increase in intracellular mobilisation in the absence of U46619.
The human TP calcium mobilisation assay utilises Chinese hamster ovary-K1 (CHO-K1) cells into which a stable (pCIN; BioTechniques 20 (1996): 102-110) vector containing TP cDNA has previously been transfected. Cells are cultured in suitable flasks containing culture medium such as DMEM:F-12 supplemented with 10% v/v foetal calf serum, 2 mM L-glutamine, 0.25 mg/ml geneticin, 100 μM flurbiprofen and 10 μg/ml puromycin.
For assay, cells are harvested using a proprietary reagent that dislodges cells such as Versene. Cells are re-suspended in a suitable quantity of fresh culture media for introduction into a 96-well plate. Following incubation for 24 hours at 37° C. the culture media is replaced with a medium containing Fluo-4 and the detergent pluronic acid, and a further incubation takes place. Concentrations of compounds are then added to the plate in order to construct concentration-effect curves. This may be performed on the FLIPR in order to assess the agonist properties of the compounds. Concentrations of U46619 are then added to the plate in order to assess the antagonist properties of the compounds.
The data so generated may be analysed by means of a computerised curve-fitting routine. The concentration of compound that elicits a half-maximal inhibition of the calcium mobilisation induced by U46619 (pIC50) may then be estimated, and the percentage activation caused by the compounds directly can be used to determine if there is any agonism present.

Counter-ions that a name gives are not always drawn.

With `Cc1cc(C(=O)O)nn1Cc1cc(Cl)cc2cc(C(C)C)oc12` [Example 3, 1-{[5-Chloro-2-(1-methylethyl)-1-benzofuran-7-yl]methyl}-5-methyl-1H-pyrazole-3-carboxylic Acid], the figures for the Ki at human EP1 receptor and at human TP receptor were at most 316 nM and below 3160 nM, respectively.
On the same counts, the results for `Cc1cc(C(=O)Nc2ccc(CN3CCC(O)CC3)cc2)nn1Cc1cc(Cl)cc2cc(C(C)C)oc12` [Example 16, 1-{[5-Chloro-2-(1-methylethyl)-1-benzofuran-7-yl]methyl}-N-{4-[(4-hydroxy-1-piperidinyl)methyl]phenyl}-5-methyl-1H-pyrazole-3-carboxamide hydrochloride] are at most 316 nM and above 3160 nM.
Take `CC(C)c1cc2cc(Cl)cc(Cc3ccc(C(=O)O)o3)c2o1` [Example 1, 5-{[5-Chloro-2-(1-methylethyl)-1-benzofuran-7-yl]methyl}-2-furancarboxylic Acid]: the figures for the Ki at human EP1 receptor and at human TP receptor were at most 316 nM and below 31.6 nM, respectively.
On to `Cc1cc(C(=O)Nc2ccc(CN3CC[C@@H](O)C3)cc2)nn1Cc1cc(Cl)cc2cc(C(C)C)oc12` [Example 17, 1-{[5-Chloro-2-(1-methylethyl)-1-benzofuran-7-yl]methyl}-N-(4-{[(3R)-3-hydroxy-1-pyrrolidinyl]methyl}phenyl)-5-methyl-1H-pyrazole-3-carboxamide hydrochloride], for which the Ki at human EP1 receptor was at most 316 nM; on human TP receptor it was above 3160 nM.
On the same counts, the results for `Cc1cc(C(=O)NN2CCOCC2)nn1Cc1cc(Cl)cc2cc(C3CCCCC3)oc12` [Example 28, 1-[(5-Chloro-2-cyclohexyl-1-benzofuran-7-yl)methyl]-5-methyl-N-4-morpholinyl-1H-pyrazole-3-carboxamide] are at most 316 nM and above 3160 nM.
For `CCNCc1ccc(NC(=O)c2cc(C)n(Cc3cc(Cl)cc4cc(C(C)C)oc34)n2)cc1` [Example 15, 1-{[5-Chloro-2-(1-methylethyl)-1-benzofuran-7-yl]methyl}-N-{4-[(ethylamino)methyl]phenyl}-5-methyl-1H-pyrazole-3-carboxamide hydrochloride], in that order: at most 316 nM and above 3160 nM.
